Measured values taken from US7803559B1, “Protein aggregation regulators” (The Regents of the University of CA, priority 2003, dated 2010).
Structures can show the parent of a compound that is named as a salt.

Target: T1, htt(72)CFP/YFP (Homo sapiens, UniProt P42858, INS38QQQQQQQQQQQQQQQQQQQQQQQQQQQQQQQQQQQQQQQQQQQQQQQQQQQ)
T1 construct: htt exon 1 fragment derived from plasmid qp72; expressed in transfected cells; host or cells: HEK293
Experiment: FRET based assay of htt aggregation
Type: cell-based
Conditions: HEK293, htt(72)CFP/YFP, 24 hours
Experimental: Aggregation of htt was monitored using the FPR FRET based HTS described herein for assaying aggregation of AR, using plasmids with htt exon 1-CFP and -YFP fusions containing 72 repeats (htt(72)CFP/YFP). HEK293 cells were transfected with htt(72)CFP/YFP as above, and cells were plated into a 96-well dish in the presence or absence of various concentrations of test compounds. After 24 hours, cells were fixed in 4% paraformaldehyde, and FRET signal was determined from the cell monolayers by reading on the FPR.

T1 sequence (P42858 with tags, fused parts or gaps, stated change not applied): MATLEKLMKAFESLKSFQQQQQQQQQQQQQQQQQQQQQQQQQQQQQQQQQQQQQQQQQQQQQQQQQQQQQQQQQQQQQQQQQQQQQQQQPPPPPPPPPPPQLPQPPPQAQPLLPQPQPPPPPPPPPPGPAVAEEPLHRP

| Max % Inh. in Htt | Compound |
| --- | --- |
| 21% | COc1cc2ncnc(Nc3ccc(F)c(Cl)c3)c2cc1OC(C)=O [Compound 3, Acetic acid 4-(3-chloro-4-fluoro-phenylamino)-7-methoxy-quinazolin-6-yl ester] |
| 15% | COc1cc2nc[nH]c(=O)c2cc1OC(C)=O [Compound 4, Acetic acid 7-methoxy-4-oxo-3,4-dihydro-quinazolin-6-yl ester] |
| 20% | COc1cc2ncnc(Nc3ccc(F)c(Cl)c3)c2cc1OCCCN1CCOCC1 [Iressa, (3-Chloro-4-fluoro-phenyl)-[7-methoxy-6-(3-morpholin-4-yl-propoxy)-quinazolin-4-yl]-amine] |

System: ARN127(65)CFP/YFP
Experiment: Secondary screen using the AR FRET assay
Type: cell-based, human
Conditions: not given
Experimental: Selected candidate compounds and/or libraries of compounds were screened as follows. Daughter plates were created in duplicate from the 384-well microtiter plates that contained the compounds at a concentration of 80 μg/ml. […] To screen a library, HEK293 cells stably expressing RFP were plated in 10 cm plates to obtain ˜80% confluency on the day of transfection. Each plate was transfected with 2 μg of ARN127(65)CFP/YFP each, and 0.7 μg p6RGRΔ using 50 μL Plus Reagent™ and 76 μL Lipofectamine™ according to manufacturer's protocol (Invitrogen). After 3 hours, complete medium was added and the plates were incubated further for 3 hours. […] The cells were then cultured for ˜48 hours to allow aggregate formation. After fixing the cells FRET signal was measured using a SAFIRE Fluorescence Plate Reader (Tecan, Inc.) according to methods described above. Several internal controls were used to standardize each experiment. Mock transfected cells were used to control for background autofluorescence and light scattering by mammalian cells. To control for CFP bleedthrough and crossover excitation of YFP, additional wells contained cells expressing ARN127(25)CFP or ARN127(25)YFP alone. RFP was measured to control for non-specific effects on steady-state protein levels. ARN127(25)CFP/YFP expression served as a reference point for background FRET levels without aggregation (a theoretical maximum effect on aggregation inhibition). FRET measurements for each experiment were thus scaled between 100% (cells with no drug treatment) and 0% (FRET levels from unexpanded protein).
Selected candidate compounds from the primary screen of all three libraries were assayed again in a secondary screen using the AR FRET assay.
Finally, the role of F-actin in preventing polyglutamine aggregation was investigated by treating cells with two agents that prevent actin depolymerization: phalloidin and jasplakinolide.

| Compound | Max % Inhibition |
| --- | --- |
| (2-hydroxyethyl) trimethylammonium chloride carbamate [Carbachol] | 20% |

Same assay, conditions: agents that prevent actin depolymerization, Table 5

| Compound | Max % Inhibition |
| --- | --- |
| C/C1=C\[C@H](C)C[C@H](C)OC(=O)C[C@H](c2ccc(O)cc2)NC(=O)[C@@H](Cc2c(Br)[nH]c3ccccc23)N(C)C(=O)[C@H](C)NC(=O)[C@@H](C)C1 [Jasplakinolide] | 30% |
| Phalloidin | 35% |

Same assay, conditions: secondary screen, AR FRET assay, Table 3

| Compound | Max % Inhibition |
| --- | --- |
| O=C1CC(c2ccc(O)cc2)Oc2cc(O)cc(O)c21 (racemic) [Naringenin, (±)-2,3-Dihydro-5,7-dihydroxy-2-(4-hydroxyphenyl)-4H-1-benzopyran-4-one] | 19% |
| COc1ccc([C@@H]2Sc3ccccc3N(CCN(C)C)C(=O)[C@@H]2OC(C)=O)cc1.Cl (relative stereo) [Diltiazem HCl, (2S,3S)-(+)-cis-3-Acetoxy-5-(2-dimethylaminoethyl)-2,3-dihydro-2-(4-methoxyphenyl)-1,5-benzothiazepin-4(5H)-one hydrochloride] | 22% |
| COc1ccc2c(c1OC)C(=O)O[C@H]2[C@@H]1c2cc3c(cc2CCN1C)OCO3 [1S,9R-beta hydrastine, 1S,9R-(+)-beta hydrastine] | 18% |
| CCCCC/C=C\C/C=C\C/C=C\C/C=C\CCCC(=O)O [Arachidonic acid, cis,cis,cis,cis-5,8,11,14-Eicosatetraenoic aci] | 19% |
| CNCCc1ccccn1.Cl.Cl [Betahistine hydrochloride, N-methyl-N-(2-pyridin-2-ylethyl)amine dihydrochloride] | 19% |
| NS(=O)(=O)c1cc2c(cc1Cl)N=CNS2(=O)=O [Chlorothiazide, 6-Chloro-2H-1,2,4-benzothiadiazine-7-sulfonamide 1,1-dioxide] | 19% |
| COc1cc2ncnc(Nc3ccc(F)c(Cl)c3)c2cc1OC(C)=O [Compound 3, Acetic acid 4-(3-chloro-4-fluoro-phenylamino)-7-methoxy-quinazolin-6-yl ester] | 30% |
| COc1cc2nc[nH]c(=O)c2cc1OC(C)=O [Compound 4, Acetic acid 7-methoxy-4-oxo-3,4-dihydro-quinazolin-6-yl ester] | 28% |
| COc1cc(C)c(C(=O)Oc2cc(C)c(C(=O)O)c(O)c2C)c(OC)c1C [Diffractic acid, 4-[(2,4-dimethoxy-3,6-dimethylbenzoyl)-oxy]-2-hydroxy-3,6-dimethylbenzoic acid] | 20% |
| O=C(O)c1ccccc1OP(=O)(O)O [Fosfosal, 2-phosphonooxybenzoic acid] | 23% |
| CC1=CC(=O)C2=C(C)CCC3[C@H](C)C(=O)O[C@@H]3[C@H]12 (stereo partly drawn) [Leucodin, (3S,9aR,9bS)-3,6,9-trimethyl-3,3a,4,5,9a,9b-hexahydroazuleno-[4,5-b]furan-2,7-dione] | 23% |
| Cc1cc(-c2ccccc2)nnc1NCCN1CCOCC1 [Minaprine HCl, N-(4-Methyl-6-phenyl-3-pyridazinyl)-4-morpholineethanamin] | 18% |
| CCOC(=O)Nc1c[n+](N2CCOCC2)no1 [Molsidomine, N-(Ethoxycarbonyl)-3-(4-morpholino)sydnone imine] | 20% |
| CC(C)(C)NCC(O)COc1cccc2c1CC(O)C(O)C2 (stereo not drawn) [Nadolol] | 19% |
| DL-alanine,2,4-chlorophenyl-1,1-dimethylethyl ester [Alaproclate] | 17% |
| N,N-bis(4-aminobutyl)amine [Spermidine HCl] | 19% |

System: ARN127(65)CFP/YFP
Experiment: Primary high-throughput AR FRET screen of three libraries
Type: cell-based, human
Conditions: compounds at 4 μg/ml, HEK293, ARN127(65)CFP/YFP + GRΔ, 100 nM dex, ~48 hours
Experimental: (§1) Selected candidate compounds and/or libraries of compounds were screened as follows. Daughter plates were created in duplicate from the 384-well microtiter plates that contained the compounds at a concentration of 80 μg/ml. Compounds were aliquoted in 96-well plates (Costar™ 3603) at a concentration at which most of the compounds are active, but are not toxic to the cells (e.g., of 4 μg/ml). To screen a library, HEK293 cells stably expressing RFP were plated in 10 cm plates to obtain ˜80% confluency on the day of transfection. Each plate was transfected with 2 μg of ARN127(65)CFP/YFP each, and 0.7 μg p6RGRΔ using 50 μL Plus Reagent™ and 76 μL Lipofectamine™ according to manufacturer's protocol (Invitrogen). After 3 hours, complete medium was added and the plates were incubated further for 3 hours. […] The cells were then cultured for ˜48 hours to allow aggregate formation. After fixing the cells FRET signal was measured using a SAFIRE Fluorescence Plate Reader (Tecan, Inc.) according to methods described above. Several internal controls were used to standardize each experiment. Mock transfected cells were used to control for background autofluorescence and light scattering by mammalian cells. To control for CFP bleedthrough and crossover excitation of YFP, additional wells contained cells expressing ARN127(25)CFP or ARN127(25)YFP alone. RFP was measured to control for non-specific effects on steady-state protein levels. ARN127(25)CFP/YFP expression served as a reference point for background FRET levels without aggregation (a theoretical maximum effect on aggregation inhibition). FRET measurements for each experiment were thus scaled between 100% (cells with no drug treatment) and 0% (FRET levels from unexpanded protein). Last, each plate also contained wells treated with Y-27632 (50 μM) as a positive control.
as §1, with “Daughter” for “Selected candidate compounds and/or libraries of compounds were screened as follows. Daughter”, “a single concentration, e.g.,” for “a concentration of”, “concentration of 4 μg/ml,” for “concentration”, “the cells.” for “the cells (e.g., of 4 μg/ml).”, “screen the” for “screen a”

| Compound | % Inhibition |
| --- | --- |
| O=c1ncnc2n([C@H]3O[C@@H](CO)[C@H](O)[C@@H]3O)[nH]cc1-2 (stereo in doubt) [Allopurinol riboside] | 71.8% |
| NCc1ccc(Cl)cc1Cl [2,4-Dichlorobenzylamine] | 85% |
| COC1=C2CC[C@@H]3[C@H](CC[C@]4(C)C(=O)CC[C@@H]34)[C@@]2(C)CCC1=O [4-Androsten-4-ol-3,17-dione 4-methyl ether] | 65.3% |
| Nc1nc2c(nc(Br)n2[C@@H]2O[C@@H]3COP(=O)([O-])O[C@H]3[C@H]2O)c(=O)[nH]1.[Na+] [8-Bromoguanosine 3′,5′-cyclic monophosphate sodium salt] | 71% |
| Cl.NC[C@@H]1O[C@H](C23CC4CC(CC(C4)C2)C3)Cc2c1ccc(O)c2O [A-77636 hydrochloride] | 64% |
| NC(N)=NCCC[C@H](N)C(=O)C[C@@H](Cc1ccc(O)cc1)C(=O)O.NC(N)=NCCC[C@H](N)C(=O)C[C@@H](Cc1ccc(O)cc1)C(=O)O.O=S(=O)(O)O [Arphamenine B Hemisulfate Salt: Hydrate] | 69.7% |
| Cn1cnc([N+](=O)[O-])c1Sc1ncnc2nc[nH]c12 [Azathioprine] | 74.5% |
| Cc1nnc(SCC2=C(C(=O)O)N3C(=O)[C@@H](NC(=O)Cn4cnnn4)[C@H]3SC2)s1 [Cefazolin sodium] | 70% |
| CO[C@@H]1O[C@H](CO)[C@H](O)[C@H](O[C@@H]2O[C@H](CO)[C@@H](O)[C@H](O)[C@H]2NC(C)=O)[C@H]1O [Methyl 3-O-(2-Acetamido-2-Deoxy-B-D-Glucopyranosyl)-B-D-Galactopyranoside] | 70% |
| NCCCCCCNS(=O)(=O)c1cccc2ccccc12 [N-6-Aminohexyl-1-Naphthalenesulfonamide] | 79.7% |
| Cc1ccc(S(=O)(=O)N[C@@H](CCC(N)=O)C(=O)OC(C)C)cc1 [N-(P-Tosyl)-L-Glutamine Isopropyl Ester] | 80.6% |
| Nc1ccc(S(=O)(=O)Nc2ncccn2)cc1 [Sulfadiaine Free Acid] | 80% |
| Cytosine beta-D-arabinofuranoside Hydrochloride | 81% |
| L-Canavanine Free Base | 73% |
